Entries after “also recorded” stand apart in the source; their conditions may differ.
Legend:
[1] = as previously reported (44); cited from earlier work
[2] = test system: ectopic human non-small-cell lung cancer and orthotopic MCF7 human breast tumors; conditions: slow infusion for ~2 hours; cited from earlier work
fibrosarcoma mouse model = conditions: cited from earlier work
[3] = test system: H460 human non-small-cell lung cancer tumors; assay: Dynamic contrast-enhanced MRI during slow GdDTPA infusion: vascular parameters before and after collagenase; type: in vivo, female CD1-NU immunodeficient mice
Procedure: (§1) Collagenase catalyzes the degradation of collagen fibers. Changing the collagen microfibrillar network in tumors modulates the extracellular matrix and causes a decrease in IFP (10, 26). H460 tumors were monitored during infusion, in the dynamic period and at steady state 24 h before and ˜5 h after collagenase administration (0.4 mg/kg body w). […] Similarly, maps of transcapillary transfer due to pressure gradients, k^ΔP, and the profiles of this parameter across the tumor indicated a change, particularly in the tumor's central region, from a negative k^ΔP before collagenase to a null or positive k^ΔP after collagenase (FIG. 6).
(§2) Human NCI-H460 non small cell lung cancer (NSCLC) cells were cultivated and implanted into the flanks of female CD1-NU immunodeficient mice, as previously described (4). During the MRI experiments, mice were anaesthetized by inhalation of 1% isofluorane (Medeva Pharmaceuticals, Inc., Rochester, N.Y., USA) in an O2/N2O (3:7) mixture applied through a nose cone (4). Collagenase (Sigma-Aldrich, St Louis, Mo., USA) treatment was applied by i.v. injection of 0.4 mg/kg body w of this enzyme (1 mg=161 collagen digestion units).
MRI scanning was performed on a 4.7-T Biospec spectrometer (Bruker Biospin, Rheinstetten, Germany) employing the same spatial resolution of 0.2×0.2×1 mm^3 in all protocols. Delineation of the boundary of the tumors and determination of their volume was achieved by analyzing images recorded with a 2-dimensional fast spin echo sequence using […] as previously described (40).
(§3) Tissue contrast agent concentration at steady state infusion was determined from measurements of T1 relaxation rates before, and at 90 min after the start of the intravenous infusion of the contrast agent as previously described (4). For the dynamic measurements 3-dimensional T1. weighted gradient echo images were recorded using TErTR=2.1/18.3 ms and flip angle=45°, 47 s temporal resolution. After recording 5 pre-contrast images, slow infusion of GdDTPA (gadopentate-dimeglumine, Schering, Berlin, Germany) was initiated at a rate of 0.011 mmol/min/kg body wt. for a total time of 120 min.
Analysis of the dynamic data collected during the slow infusion was performed at pixel resolution, on the basis of a model proposed by Jain et al (1, 35, 41-43). This model takes into account the transfer of solutes through the capillary walls and within the interstitial spaces by both diffusion in the direction of the concentration gradients and convection in the direction of the pressure gradients. Relying on few assumptions, which are described herein two differential equations were solved. The first equation applies to regions with low IFP were positive pressure gradients favors net transfer of contrast agent from the capillaries into the tissue (see equation 1) and the second one applies to intra tumoral regions with high IFP where a pressure gradients in the interstitium favors outward convection of the contrast agent and reduces the net delivery to these regions (see equation 2).
Where Ct is the contrast agent concentration in the entire tissue, Dinf is the contrast agent-infusion rate, k^trans the transcapillary transfer constant, k^ΔP the pressure gradients derived transfer rate which also depends on the shape, morphology, and the hydraulic conductivity of the tissue (1). νe represents the extracellular extravascular (EES) volume fraction, and νp the intravascular volume fraction. The parameters ai, and mi (i=1,2) represent the average plasma pharmacokinetic amplitude and time constant parameters, respectivelyt calculated to be a1=2.94 kg/l, a2=4.85 kg/l, m1=0.73 min^−1, and m2=0.075 min^−1 as previously reported (44).
A nonlinear “best fit” algorithm (40) was applied to fit the time courses to Equations 1 and 2, calculating the proportion of variability, R^2, per pixel for each fitting. […]

tumors = conditions: intra-tumoral injection; cited from earlier work
[4] = test system: human osteosarcoma xenografts; conditions: collagenase (0.1%), cited from earlier work
H460 tumors = assay: Steady-state tissue GdDTPA concentration maps (T1 relaxation MRI) before and after collagenase; type: in vivo, female CD1-NU immunodeficient mice
Procedure: as §1, §2, §3
Tissue GdDTPA concentration (CGd) at steady state was calculated at pixel resolution from the T1 measurements, as previously described (4).

[5] = inside H460 tumors (excluding the rim), 5 h after collagenase administration
[6] = H460 tumors, within hours after administration
[7] = steady state infusion, ~5 h after collagenase 0.4 mg/kg

Molecule: O=C([O-])CN(CCN(CC(=O)[O-])CC(=O)O)CCN(CC(=O)[O-])CC(=O)O.[Gd+3] [GdDTPA, gadolinium-diethylenetriaminepentaacetic acid]
- a1, average plasma pharmacokinetic amplitude [1]: 2.94 kg/L
- a2, average plasma pharmacokinetic amplitude [1]: 4.85 kg/L
- m1, plasma time constant parameter [1]: 0.73 min⁻¹
- m2, plasma time constant parameter [1]: 0.075 min⁻¹
- steady-state tissue GdDTPA concentration further inside the tumor [2]: low or null values
- steady-state tissue GdDTPA concentration in the tumor periphery [2]: ~0.5 mmol/L
- steady-state tissue GdDTPA concentration outside the tumor boundaries [2]: ~1 mmol/L

Molecule: O=C1CCC(N2C(=O)c3ccccc3C2=O)C(=O)N1 (stereo not drawn) [thalidomide]
- plasma volume fraction and fractional efflux rate from the interstitial space to the plasma (fibrosarcoma mouse model; accompanying the decline in IFP): increased
- effect on IFP (fibrosarcoma mouse model; fibrosarcoma mouse model): decline

Molecule: collagenase
- all other vascular parameters derived from the analysis, change after collagenase ([3]; H460 tumors, ~5 h after collagenase 0.4 mg/kg): did not change significantly
- change of pressure dependent transfer constant in the tumors' central/internal regions after collagenase ([3]; H460 tumors, from negative to positive values): significant increase; also recorded: significant change
- k^ΔP in the internal parts of the tumors following collagenase treatment ([3]; increased from (−2.6±3.7)*10^−3, paired t-test, p=0.016): 8.6±8.9 *10^−3
- K^trans*10^−3 [3, 5]: 3.7 ± 3.4 *10^−3
- […]e (extracellular extravascular volume fraction) [3, 5]: 0.24 ± 0.06
- […]p (intravascular volume fraction) [3, 5]: 0.053 ± 0.027
- K^□p*10^−3 (pressure dependent transfer constant) ([3]; inside H460 tumors (excluding the rim), 5 h after collagenase administration, 0.4 mg/kg i.v., mean ± SD): 8.6 ± 8.9 *10^−3
- effect on IFP (tumors): reduce IFP
- effect on uptake of antibodies (tumors): increase the uptake
- effect on IFP ([4]; within hours): reduced IFP
- increase in the tumor uptake and distribution of a monoclonal antibody [4]: 2 fold
- steady state tissue GdDTPA concentration in the internal parts after collagenase treatment (H460 tumors; H460 tumors): significantly increased
- effect on IFP (H460 tumors; [6]): reduces IFP
- effect on uptake of a contrast agent (H460 tumors; [6]): increases the uptake
- outward convection after collagenase treatment (H460 tumors; [7]): vanished
- transfer of the contrast agent in the interior regions of the tumor after collagenase (H460 tumors; [7]): markedly increased

Molecule: hyaluronidase
- effect on IFP (tumors): reduce IFP
- effect on uptake of antibodies (tumors): increase the uptake

Reference: patent US8200312B2, “Apparatus for monitoring a system pressure in space with time and method for assessing drug delivery and resistance to therapy and product” (Yeda Research and Development Co. Ltd., priority 2006, dated 2012)
